Data as given in US12098144B2, “Piperazine indazole glucocorticoid receptor antagonists” (Corcept Therapeutics Incorporated, priority 2021, dated 2024).

These compounds were tested against T1, glucocorticoid receptor (Homo sapiens, UniProt P04150) (assay: Hep G2 TAT Ki: inhibition of dexamethasone-induced TAT in HepG2 cells (96 well)). Conditions: challenge of 100 nM dexamethasone, IC50 converted to Ki by Cheng and Prusoff equation.
T1 construct: endogenous in cells; ATCC cat
T1 sequence (P04150 1-777): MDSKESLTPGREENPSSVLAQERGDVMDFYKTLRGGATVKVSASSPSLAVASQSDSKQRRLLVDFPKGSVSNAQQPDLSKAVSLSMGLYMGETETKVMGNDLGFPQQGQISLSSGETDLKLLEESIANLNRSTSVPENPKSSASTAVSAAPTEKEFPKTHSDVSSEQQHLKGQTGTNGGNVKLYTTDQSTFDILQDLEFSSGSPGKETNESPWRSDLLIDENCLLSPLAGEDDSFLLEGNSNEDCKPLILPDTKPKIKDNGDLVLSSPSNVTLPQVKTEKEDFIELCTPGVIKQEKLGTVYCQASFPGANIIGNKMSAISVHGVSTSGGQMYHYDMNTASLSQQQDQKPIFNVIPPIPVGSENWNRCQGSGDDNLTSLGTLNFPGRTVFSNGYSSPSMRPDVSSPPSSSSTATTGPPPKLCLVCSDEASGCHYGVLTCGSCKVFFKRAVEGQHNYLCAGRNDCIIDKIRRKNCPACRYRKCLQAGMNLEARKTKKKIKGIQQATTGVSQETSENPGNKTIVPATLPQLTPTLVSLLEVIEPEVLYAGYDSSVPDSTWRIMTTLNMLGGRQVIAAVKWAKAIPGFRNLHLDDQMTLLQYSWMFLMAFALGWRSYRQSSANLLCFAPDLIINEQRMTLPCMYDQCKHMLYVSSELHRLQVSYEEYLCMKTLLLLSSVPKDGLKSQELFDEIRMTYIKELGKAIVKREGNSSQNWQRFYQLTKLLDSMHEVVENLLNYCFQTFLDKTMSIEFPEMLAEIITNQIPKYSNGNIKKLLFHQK
Format: cell-based
How it was run: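 Cells lysed 15 min at 4 °C; TAT enzyme reaction 2 h at 37 °C, stopped with KOH, 30 min further at 37 °C. Inhibition fitted to 4-parameter logistic.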

Structure (SMILES)	Ki [nM]
Cc1cc2c(cnn2-c2ccc(F)cc2)cc1C1CN(S(=O)(=O)c2cncs2)CCN1CC(C)C (single isomer, unassigned) [Example 58, 5-((3-(1-(4-fluorophenyl)-6-methyl-1H-indazol-5-yl)-4-isobutylpiperazin-1-yl)sulfonyl)thiazole]	15
Cc1cc2c(cnn2-c2ccc(F)cc2)cc1C1CN(S(=O)(=O)c2cncc(F)c2)CCN1CC(C)C (centres unmarked) [Example 43, 1-(4-fluorophenyl)-5-(4-((5-fluoropyridin-3-yl)sulfonyl)-1-isobutylpiperazin-2-yl)-6-methyl-1H-indazole]	76
Cc1cc2c(cnn2-c2ccc(F)cc2)cc1C1C(=O)N(S(=O)(=O)c2cnn(C)n2)CCN1CC(C)C (centres unmarked) [Example 152, 3-(1-(4-fluorophenyl)-6-methyl-1H-indazol-5-yl)-4-isobutyl-1-((2-methyl-2H-1,2,3-triazol-4-yl)sulfonyl)piperazin-2-one]	120
Cc1cc2c(cnn2-c2ccc(F)cc2)cc1C1CN(S(=O)(=O)c2cnn(C)n2)CCN1Cc1cccnc1 (centres unmarked) [Example 18, 1-(4-fluorophenyl)-6-methyl-5-(4-((2-methyl-2H-1,2,3-triazol-4-yl)sulfonyl)-1-(pyridin-3-ylmethyl)piperazin-2-yl)-1H-indazole]	330
Cc1cc2c(cnn2-c2ccc(F)cc2)cc1C1CN(S(=O)(=O)c2cnn(C3CCOCC3)c2)CCN1CC(C)C (single isomer, unassigned) [Example 54, 1-(4-fluorophenyl)-5-(1-isobutyl-4-((1-(tetrahydro-2H-pyran-4-yl)-1H-pyrazol-4-yl)sulfonyl)piperazin-2-yl)-6-methyl-1H-indazole]	31
COCCn1cc(S(=O)(=O)N2CCN(CC(C)C)C(c3cc4cnn(-c5ccc(F)cc5)c4cc3C)C2)cn1 (single isomer, unassigned) [Example 47, 1-(4-fluorophenyl)-5-(1-isobutyl-4-((1-(2-methoxyethyl)-1H-pyrazol-4-yl)sulfonyl)piperazin-2-yl)-6-methyl-1H-indazole]	23
CCn1cc(S(=O)(=O)N2CCN(CC(C)C)C(c3cc4cnn(-c5ccc(F)cc5)c4cc3C)C2)cn1 (centres unmarked) [Example 38, 5-(4-((1-ethyl-1H-pyrazol-4-yl)sulfonyl)-1-isobutylpiperazin-2-yl)-1-(4-fluorophenyl)-6-methyl-1H-indazole]	46
Cc1cc2c(cnn2-c2ccc(F)cc2)cc1C1CN(S(=O)(=O)c2cnccc2C)CCN1CC(C)C (single isomer, unassigned) [Example 112, 1-(4-fluorophenyl)-5-(1-isobutyl-4-((4-methylpyridin-3-yl)sulfonyl)piperazin-2-yl)-6-methyl-1H-indazole]	36
CCn1ncc(S(=O)(=O)N2CCN(CC(C)C)C(c3cc4cnn(-c5ccc(F)cc5)c4cc3C)C2)n1 (single isomer, unassigned) [Example 48, 5-(4-((2-ethyl-2H-1,2,3-triazol-4-yl)sulfonyl)-1-isobutylpiperazin-2-yl)-1-(4-fluorophenyl)-6-methyl-1H-indazole]	23
Cc1cc2c(cnn2-c2ccc(F)cc2)cc1[C@@H]1CN(S(=O)(=O)c2cnn(C)n2)CCN1C[C@H](C)F (racemic) [Example 158, 1-(4-fluorophenyl)-5-(1-(2-fluoropropyl)-4-((2-methyl-2H-1,2,3-triazol-4-yl)sulfonyl)piperazin-2-yl)-6-methyl-1H-indazole]	45
Cc1cc2c(cnn2-c2ccc(F)cc2)cc1C1CN(S(=O)(=O)c2cnn(C3CCOCC3)c2)CCN1CC(C)C (centres unmarked) [Example 36, 1-(4-fluorophenyl)-5-(1-isobutyl-4-((1-(tetrahydro-2H-pyran-4-yl)-1H-pyrazol-4-yl)sulfonyl)piperazin-2-yl)-6-methyl-1H-indazole]	50
Cc1cc2c(cnn2-c2ccc(F)cc2)cc1C1CN(S(=O)(=O)c2cccnc2C(F)(F)F)CCN1CC(C)C (single isomer, unassigned) [Example 105, 1-(4-fluorophenyl)-5-(1-isobutyl-4-((2-(trifluoromethyl)pyridin-3-yl)sulfonyl)piperazin-2-yl)-6-methyl-1H-indazole]	46
CCn1ncc(S(=O)(=O)N2CCN(CCC(F)(F)F)C(c3cc4cnn(-c5ccc(F)cc5)c4cc3C)C2)n1 (single isomer, unassigned) [Example 135, 5-(4-((2-ethyl-2H-1,2,3-triazol-4-yl)sulfonyl)-1-(3,3,3-trifluoropropyl)piperazin-2-yl)-1-(4-fluorophenyl)-6-methyl-1H-indazole]	23
Cc1cc2c(cnn2-c2ccc(F)cc2)cc1C1CN(S(=O)(=O)c2cnn(C)n2)CCN1CC1CNC(=O)C1 (single isomer, unassigned) [Example 118, 4-((2-(1-(4-fluorophenyl)-6-methyl-1H-indazol-5-yl)-4-((2-methyl-2H-1,2,3-triazol-4-yl)sulfonyl)piperazin-1-yl)methyl)pyrrolidin-2-one]	190
Cc1cc2c(cnn2-c2ccc(F)cc2)cc1C1CN(S(=O)(=O)c2cnn(C)c2)CCN1CCC(F)(F)F (single isomer, unassigned) [Example 128, 1-(4-fluorophenyl)-6-methyl-5-(4-((1-methyl-1H-pyrazol-4-yl)sulfonyl)-1-(3,3,3-trifluoropropyl)piperazin-2-yl)-1H-indazole]	14
Cc1cc2c(cnn2-c2ccc(F)c(C#N)c2)cc1C1CN(S(=O)(=O)c2cnn(C)n2)CCN1CCC(F)(F)F (single isomer, unassigned) [Example 169, 2-fluoro-5-(6-methyl-5-(4-((2-methyl-2H-1,2,3-triazol-4-yl)sulfonyl)-1-(3,3,3-trifluoropropyl)piperazin-2-yl)-1H-indazol-1-yl)benzonitrile]	66
Cc1cc2c(cnn2-c2ccc(F)cc2)cc1C1CN(S(=O)(=O)c2cnn(C)n2)CC(=O)N1Cc1ccccc1 (centres unmarked) [Example 153, 1-benzyl-6-(1-(4-fluorophenyl)-6-methyl-1H-indazol-5-yl)-4-((2-methyl-2H-1,2,3-triazol-4-yl)sulfonyl)piperazin-2-one]	380
Cc1cc2c(cnn2-c2ccc(F)cc2)cc1C1CN(S(=O)(=O)c2cn(CC(F)F)nc2C)CCN1CC(C)C (single isomer, unassigned) [Example 96, 5-(4-((1-(2,2-difluoroethyl)-3-methyl-1H-pyrazol-4-yl)sulfonyl)-1-isobutylpiperazin-2-yl)-1-(4-fluorophenyl)-6-methyl-1H-indazole]	43
Cc1cc2c(cnn2-c2ccc(F)cc2)cc1C1CN(S(=O)(=O)c2cnn(C)n2)CCN1Cc1ccon1 (single isomer, unassigned) [Example 72, 3-((2-(1-(4-fluorophenyl)-6-methyl-1H-indazol-5-yl)-4-((2-methyl-2H-1,2,3-triazol-4-yl)sulfonyl)piperazin-1-yl)methyl)isoxazole]	330
Cc1cc2c(cnn2-c2ccc(F)cc2)cc1C1CN(S(=O)(=O)c2cnn(C)n2)CCN1C1COC1 (single isomer, unassigned) [Example 28, 1-(4-fluorophenyl)-6-methyl-5-(4-((2-methyl-2H-1,2,3-triazol-4-yl)sulfonyl)-1-(oxetan-3-yl)piperazin-2-yl)-1H-indazole]	230
Cc1cc2c(cnn2-c2ccc(F)cc2)cc1C1CN(S(=O)(=O)c2cnn(C(C)C)n2)CCN1CC(C)C (centres unmarked) [Example 37, 1-(4-fluorophenyl)-5-(1-isobutyl-4-((2-isopropyl-2H-1,2,3-triazol-4-yl)sulfonyl)piperazin-2-yl)-6-methyl-1H-indazole]	76
Cc1cc2c(cnn2-c2ccc(F)cc2)cc1C1CN(S(=O)(=O)c2ccccn2)CCN1CCC(F)(F)F (single isomer, unassigned) [Example 139, 1-(4-fluorophenyl)-6-methyl-5-(4-(pyridin-2-ylsulfonyl)-1-(3,3,3-trifluoropropyl)piperazin-2-yl)-1H-indazole]	37
CO[C@H]1C[C@@H](CN2CCN(S(=O)(=O)c3csc(C)n3)CC2c2cc3cnn(-c4ccc(F)cc4)c3cc2C)C1 (single isomer, unassigned) [Example 171, 4-((3-(1-(4-fluorophenyl)-6-methyl-1H-indazol-5-yl)-4-((3-methoxycyclobutyl)methyl)piperazin-1-yl)sulfonyl)-2-methylthiazole]	24
